# Experimental data as given in ChEMBL document CHEMBL6078657, “Thiazolidinedione-based structure modification of ergosterol peroxide provides thiazolidinedione-conjugated derivatives as potent agents against breast cancer cells through a PI3K/AKT/mTOR pathway” (Bioorg Med Chem, 2025).
# Active and inactive are the calls of the source. No cut-off for these calls is given here.
# How the values were obtained:
# [1] = Antiproliferative activity against human MCF-10A cells assessed as cell viability measured after 48 hrs incubation by MTT assay; type: toxicity, cell-based
# [2] = Selectivity index, ratio of IC50 for human MCF-10A cells to IC50 for human MCF7 cells; type: toxicity; conditions: MCF-10A cells and MCF7 cells, read-out: Selectivity Index
# [3] = system: MCF7; assay: Induction of cell cycle arrest in human MCF7 cells assessed as accumulation of cells at G2/M phase at 3 uM measured after 48 hrs by PI staining based flow cytometry analysis (reference value: 16.91%); type: functional
# [4] = target: Serine/threonine-protein kinase mTOR (Homo sapiens) (UniProt P42345); assay: Inhibition of phosphorylation of mTOR in human MCF7 cells measured after 48 hrs by Western blot analysis; type: cell-based; conditions: dose 1-6 µM
# [5] = system: MCF7; assay: Induction of apoptosis in human MCF7 cells assessed as late apoptotic cells at 3 uM measured after 48 hrs incubation by Annexin V-FITC/PI double staining assay (reference value: 0.68%); type: functional
# [6] = Toxicity in healthy BALB/c mouse assessed as pathological changes in heart at 40 mg/kg, ip daily for 14 consecutive days by HE staining based assay; type: organism-based; conditions: in vivo, 336 h, time 14 day
# [7] = system: MCF7; assay: Induction of apoptosis in human MCF7 cells assessed as late apoptotic cells at 6 uM measured after 48 hrs incubation by Annexin V-FITC/PI double staining assay (reference value: 0.68%); type: functional
# [8] = system: MCF7; assay: Induction of apoptosis in human MCF7 cells assessed as necrotic cells at 6 uM measured after 48 hrs incubation by Annexin V-FITC/PI double staining assay (reference value: 0.77%); type: functional
# [9] = system: MCF7; assay: Induction of cell cycle arrest in human MCF7 cells assessed as accumulation of cells at S phase at 3 uM measured after 48 hrs by PI staining based flow cytometry analysis (reference value: 24.67%); type: functional
# [10] = system: MCF7; assay: Induction of cell cycle arrest in human MCF7 cells assessed as accumulation of cells at S phase at 1 uM measured after 48 hrs by PI staining based flow cytometry analysis (reference value: 24.67%); type: functional
# [11] = system: MCF7; assay: Induction of apoptosis in human MCF7 cells assessed as decrease in mitochondrial membrane potential by measuring increase in JC-1 monomer (green fluorescence) at 6 uM incubated for 48 hrs by JC-1 staining based flow cytometry analysis (reference value: 2.96%); type: functional; design: scale not given: the % may be the effect or the level left
# [12] = system: A549; assay: Antiproliferative activity against human A549 cells assessed as cell viability measured after 48 hrs incubation by MTT assay; type: functional, cell-based; conditions: A549, 48 h
# [13] = system: MCF7; assay: Induction of apoptosis in human MCF7 cells assessed as viable cells at 3 uM measured after 48 hrs incubation by Annexin V-FITC/PI double staining assay (reference value: 92.8%); type: functional; conditions: read-out: Activity
# [14] = Toxicity in healthy BALB/c mouse assessed as pathological changes in liver at 40 mg/kg, ip daily for 14 consecutive days by HE staining based assay; type: organism-based; conditions: in vivo, 336 h, time 14 day
# [15] = system: MCF7; assay: Antiproliferative activity against human MCF7 cells assessed as cell viability measured after 48 hrs incubation by MTT assay; type: functional, cell-based; conditions: MCF7, 48 h
# [16] = system: MCF7; assay: Induction of apoptosis in human MCF7 cells assessed as late apoptotic cells at 1 uM measured after 48 hrs incubation by Annexin V-FITC/PI double staining assay (reference value: 0.68%); type: functional
# [17] = system: MCF7; assay: Induction of apoptosis in human MCF7 cells assessed as decrease in mitochondrial membrane potential by measuring increase in JC-1 monomer (green fluorescence) at 3 uM incubated for 48 hrs by JC-1 staining based flow cytometry analysis (reference value: 2.96%); type: functional; design: scale not given: the % may be the effect or the level left
# [18] = system: MCF7; assay: Induction of apoptosis in human MCF7 cells assessed as decrease in mitochondrial membrane potential by measuring increase in JC-1 monomer (green fluorescence) incubated for 48 hrs by JC-1 staining based flow cytometry analysis; type: functional, cell-based; conditions: dose 1-6 µM
# [19] = system: MCF7; assay: Induction of apoptosis in human MCF7 cells assessed as early apoptotic cells at 6 uM measured after 48 hrs incubation by Annexin V-FITC/PI double staining assay (reference value: 5.73%); type: functional
# [20] = system: MCF7; assay: Growth inhibition of human MCF7 cells assessed as ruptured membrane and shrunken nucleus at 1 to 6 uM incubated up to 48 hrs by acridine orange/ethidium bromide (AO/EB) staining based assay; type: functional, cell-based; conditions: dose 1-6 µM
# [21] = Toxicity in healthy BALB/c mouse assessed as pathological changes in liver at 20 mg/kg, ip daily for 14 consecutive days by HE staining based assay; type: organism-based; conditions: in vivo, 336 h, time 14 day
# [22] = system: MCF7; assay: Induction of cell cycle arrest in human MCF7 cells assessed as accumulation of cells at G2/M phase at 6 uM measured after 48 hrs by PI staining based flow cytometry analysis (reference value: 16.91%); type: functional
# [23] = Toxicity in healthy BALB/c mouse assessed as pathological changes in heart at 20 mg/kg, ip daily for 14 consecutive days by HE staining based assay; type: organism-based; conditions: in vivo, 336 h, time 14 day
# [24] = system: MCF7; assay: Induction of apoptosis in human MCF7 cells assessed as increase in ROS production by measuring bright green fluorescence measured after 48 hrs incubation by DCFH-DA staining based flow cytometry assay; type: functional, cell-based; conditions: dose 1-6 µM
# [25] = Toxicity in healthy BALB/c mouse assessed as pathological changes in kidneys at 20 mg/kg, ip daily for 14 consecutive days by HE staining based assay; type: organism-based; conditions: in vivo, 336 h, time 14 day
# [26] = system: MCF7; assay: Induction of apoptosis in human MCF7 cells assessed as decrease in mitochondrial membrane potential by measuring increase in JC-1 monomer (green fluorescence) at 1 uM incubated for 48 hrs by JC-1 staining based flow cytometry analysis (reference value: 2.96%); type: functional; design: scale not given: the % may be the effect or the level left
# [27] = system: MCF7; assay: Induction of apoptosis in human MCF7 cells assessed as viable cells at 6 uM measured after 48 hrs incubation by Annexin V-FITC/PI double staining assay (reference value: 92.8%); type: functional; conditions: read-out: Activity
# [28] = system: MCF7; assay: Induction of cell cycle arrest in human MCF7 cells assessed as accumulation of cells at G0/G1 phase at 3 uM measured after 48 hrs by PI staining based flow cytometry analysis (reference value: 58.42%); type: functional
# [29] = Toxicity in healthy BALB/c mouse assessed as pathological changes in spleen at 40 mg/kg, ip daily for 14 consecutive days by HE staining based assay; type: organism-based; conditions: in vivo, 336 h, time 14 day
# [30] = system: 4T1; assay: In vivo antitumor activity against mouse 4T1 cells transfected in BALB/c mouse assessed as tumor growth inhibition at 15 mg/kg, ip daily for 14 consecutive days relative to control; type: functional; conditions: 4T1, 336 h, time 14 day, read-out: TGI
# [31] = system: MCF7; assay: Induction of apoptosis in human MCF7 cells assessed as early apoptotic cells at 1 uM measured after 48 hrs incubation by Annexin V-FITC/PI double staining assay (reference value: 5.73%); type: functional
# [32] = system: MCF7; assay: Induction of apoptosis in human MCF7 cells assessed as early apoptotic cells at 3 uM measured after 48 hrs incubation by Annexin V-FITC/PI double staining assay (reference value: 5.73%); type: functional
# [33] = Toxicity in healthy BALB/c mouse assessed as pathological changes in lungs at 40 mg/kg, ip daily for 14 consecutive days by HE staining based assay; type: organism-based; conditions: in vivo, 336 h, time 14 day
# [34] = system: MCF7; assay: Induction of cell cycle arrest in human MCF7 cells assessed as accumulation of cells at G2/M phase at 1 uM measured after 48 hrs by PI staining based flow cytometry analysis (reference value: 16.91%); type: functional
compound,measurement,setting,value
CC(C)[C@@H](C)/C=C/[C@@H](C)[C@H]1CC[C@@H]2[C@]1(C)CC[C@H]1[C@]23C=C[C@]2(C[C@@H](OC(=O)NCCNC(=O)CN4C(=O)S/C(=C\c5cccc6ccccc56)C4=O)CC[C@]12C)OO3,IC50 at 48 h,[1],32.3 µM
same,selectivity ratio,[2],10.6
same,Activity,[3],10.83%
same,inhibition,[4],Dose-dependent-effect
same,Activity,[5],0.77%
same,Activity,[6],Non-toxic
same,Activity,[7],1.75%
same,Activity,[8],0.72%
same,Activity,[9],8.41%
same,Activity,[10],14.93%
same,Activity,[11],49.5%
same,IC50,[12],4.76 µM
same,viability at 3 µM,[13],75.7%
same,Activity,[14],Non-toxic
same,IC50,[15],3.06 µM
same,Activity,[16],0.9%
same,Activity,[17],26.2%
same,Activity,[18],Dose-dependent-effect
same,Activity,[19],44.5%
same,growth inhibition (GI),[20],Active
same,Activity,[21],Non-toxic
same,Activity,[22],7.27%
same,Activity,[23],Non-toxic
same,Activity,[24],Active
same,Activity,[25],Non-toxic
same,Activity,[26],12.9%
same,viability at 6 µM,[27],53%
same,Activity,[28],80.77%
same,Activity,[29],Non-toxic
same,inhibition in vivo at 15 mg/kg,[30],33.5%
same,Activity,[31],13.7%
same,Activity,[32],22.8%
same,Activity,[33],Non-toxic
same,Activity,[34],18.98%
